From publication PMC10906247, “From Functional Fatty Acids to Potent and Selective Natural-Product-Inspired Mimetics via Conformational Profiling” (ACS Central Science, 2024)
Like-named read-outs stand apart in the source and are kept apart here.

Assays:
[1] = target: T1, TLX ligand binding domain (Homo sapiens, UniProt Q9Y466); assay: TLX ligand sensing assay (AlphaScreen, RIP140 NR box peptide recruitment); assay type: biochemical
T1 construct: purchased NovAliX SAS, Strasbourg, France

GPR40 (FFAR1) = GPR40 (FFAR1) (Homo sapiens, UniProt O14842); assay: PathHunter β-arrestin assay (Eurofins Discovery), GPR40; assay type: cell-based
Sequence of GPR40 (FFAR1) (O14842 whole entry): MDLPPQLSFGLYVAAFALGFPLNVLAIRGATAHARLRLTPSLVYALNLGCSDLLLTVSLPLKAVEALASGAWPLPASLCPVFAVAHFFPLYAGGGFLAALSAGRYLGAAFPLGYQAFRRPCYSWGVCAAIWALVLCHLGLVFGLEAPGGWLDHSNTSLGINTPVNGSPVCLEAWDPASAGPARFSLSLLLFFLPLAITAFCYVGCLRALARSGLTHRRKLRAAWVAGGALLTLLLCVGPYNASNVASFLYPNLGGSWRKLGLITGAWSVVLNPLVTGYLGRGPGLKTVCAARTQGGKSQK
Procedure: (§1) With these compounds in hand, attention was directed at evaluating their properties as ligands to GPR40, GPR120,[24] and TLX. Initial profiling experiments were conducted targeting the GPCR targets at a single concentration (15 μM) in a commercially available β-arrestin assay.
(§2) Functional assays at GPR40 and GPR120 were conducted by Eurofins Discovery services using their PathHunter® b-Arrestin assay that monitors the activation of a GPCR in a homogenous, non-imaging assay format using a technology developed by DiscoverX called Enzyme Fragment Complementation (EFC) with b-galactosidase (b-Gal) as the functional reporter. b-Arrestin GPCR cell lines built on the principles of EFC are engineered to co-express the ProLinkTM (PK) tagged GPCR and the Enzyme Acceptor (EA) tagged b-Arrestin. Activation of the GPCR-PK induces b-Arrestin-EA recruitment, forcing complementation of the two b-galactosidase enzyme fragments (EA and PK). The resulting functional enzyme hydrolyzes substrate to generate chemiluminescent […]
(§3) Additional information can be found at: www.eurofinsdiscovery.com/solution/b-arrestin Below are dose-response curves generated from Eurofins Discovery services for activity of ligands depicted in Figure 6B at GPR40 (FFAR1) and GPR120. […]

GPR40 = conditions: oleic acid; stimulatory activity on CHO-mGPR40 cells; read-out: GPR40 EC50 historical; cited from earlier work
GPR120 [2] = target: T2, GPR120 (Homo sapiens, UniProt Q5NUL3); assay: PathHunter β-arrestin assay (Eurofins Discovery), GPR120; assay type: cell-based
T2 sequence (Q5NUL3 1-361): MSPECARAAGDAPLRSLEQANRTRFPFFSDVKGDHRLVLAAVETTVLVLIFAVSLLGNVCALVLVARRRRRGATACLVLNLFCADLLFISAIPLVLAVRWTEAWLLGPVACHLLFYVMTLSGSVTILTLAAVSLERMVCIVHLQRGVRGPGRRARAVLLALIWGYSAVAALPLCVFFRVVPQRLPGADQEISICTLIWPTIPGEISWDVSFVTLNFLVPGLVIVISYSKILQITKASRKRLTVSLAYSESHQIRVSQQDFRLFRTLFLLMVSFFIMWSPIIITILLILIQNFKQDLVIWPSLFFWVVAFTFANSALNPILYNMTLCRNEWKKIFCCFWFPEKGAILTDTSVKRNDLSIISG
Procedure: as §1, §2, §3

GPR120 [3] = target: T2, GPR120; conditions: read-out: GPR120 EC50 historical; oleic acid; cited from earlier work
MIN6 cells = tested on: MIN6 cells; design: method as in PMID 12629551, PMID 12496284; conditions: cited from earlier work
[4] = dose-response, oleic acid = 100

T1 sequence (Q9Y466 155-383 limits assumed): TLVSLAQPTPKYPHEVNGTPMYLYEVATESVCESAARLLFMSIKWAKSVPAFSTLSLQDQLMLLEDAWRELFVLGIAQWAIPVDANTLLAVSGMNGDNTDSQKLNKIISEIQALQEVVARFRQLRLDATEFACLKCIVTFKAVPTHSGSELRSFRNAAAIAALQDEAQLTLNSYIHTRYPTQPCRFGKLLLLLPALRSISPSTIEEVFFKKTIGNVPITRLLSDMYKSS

For `CCCCCCCC/C=C\CCCCCCCC(=O)O` [oleic acid, reference compound], the EC50 [1] was 3.55 µM, the “enhanced recruitment of a coactivator protein fragment” value [1] was 8.4 fold and the EC50 ([1]; ALPHA normalized, supplement, read-out: TLX EC50 (dose-response curves)) was 3.55 µM. It also gave an EC50 ([1]; coactivator recruitment, read-out: TLX EC50) of 3.6 µM, a TLX max. efficacy ([1]; oleic acid = 100) of 100% and an EC50 (GPR40 (FFAR1); GPR40 EC50 measured) of 37 µM. The GPR40 max. efficacy (GPR40 (FFAR1); [4]) was 100%, the “right shift of GPR40 result relative to reported historical activity” value (GPR40 (FFAR1); measured vs historical EC50) was about 20 fold and the EC50 (GPR40) was 2 µM. For the same molecule, the EC50 (GPR120 [2]; GPR120 EC50 measured) was 15 µM, the GPR120 max. efficacy (GPR120 [2]; [4]) was 100% and the EC50 (GPR120 [3]) was 12 µM. For the same molecule, the “concentration inducing insulin secretion” value (MIN6 cells) was at least 1 µM.
